Data set [1] concerns JCV strain Mad1/SVEΔ. Kind of data set: microbe, parasite or virus in culture. It is filed as cell-based, JC polyomavirus (JCV). The following applies: for % Inhibition (total #JCV+) @10 uM: SV40 transformed glial cells, Mad-1/SVEΔ JCV; for % Inhibition (% JCV+) @10 uM: infection rate, JCV+ cells normalised to total cells. Here is the method: (§1) SV40 transformed glial cells were seeded in 10% FBS media. The cells were seeded at 2000 cells per well in 75 μl of media per well. On day 2, the media was removed and replaced by 35 μl of a 1× concentrated drug aliquot combined with a 100× diluted JCV Turbo aliquot in 35 μl of 2% FBS media (JCV Turbo is a hybrid Mad-1/SVEΔ virus constructed by insertion of the regulatory region of SV40 into the regulatory region of the Mad-1 strain of JCV (Mad-1/SVE), Vacante et al., Virology 1989, 170: 353-361). The cells were incubated for an hour, after which another 65 uL aliquot of 1× concentrated drug in 2% FBS was added. On day 5 the cells were stained with DAPI (for total cell number) and with a mouse monoclonal antibody against SV40 VP1, which cross reacts with the JCV VP1 protein. […] The information is tabulated as % inhibition (as measured by the number and percentage of JCV positive cells).
(§2) JCV Infectivity Assay: SVG-A cells were seeded at 2,000 cells/well/0.075 ml of culture media in 96 flat-bottom well plate (Corning, N.Y.). The next day compounds were prepared in assay medium (2% heat-inactivated fetal bovine serum, 4 mM L-glutamine, 1×MEM). A master viral plate was prepared by mixing equal volumes of [2×] compound and [2×] diluted virus for the final 1× concentration of the compound and the virus. The plate containing cells was gently inverted and shaken to remove media. From the master plate, 0.035 ml compound/virus was added to designated wells. The cells were incubated with the compound/virus mixture for 60 minutes in a humidified 37° C. CO2 incubator. At that time final concentration of the drug in media was added to designated wells to bring the final volume up to 0.1 ml/well. The plates were incubated for an additional three days, the cells were then washed once with 1×PBS, and fixed in 2% paraformaldehyde/1×PBS for 30 minutes at room temperature. The fixative was removed and the cells were solubilized with 0.5% Triton X100 in PBS for an additional 30 minutes. Infection by Mad-1/SVEΔ virus was visualized by staining with PAB597, a monoclonal antibody against the major capsid protein VP1, the cells were incubated with 0.05 ml of PAB597 (2 μg/ml in 1×PBS) for 60 minutes at 37° C. Following a wash step with 1×PBS, primary antibody was detected with an Alexa-Fluor 488-labeled goat anti-mouse secondary antibody at 1:100 dilution in 1×PBS, cells were counterstained with DAPI at 1 μg/ml (0.05 ml/well) for 30 minutes at 37° C. Cells were washed with 1×PBS and 0.1 ml 1×PBS was added to cells. Field images of each well were acquired and analyzed using the Cellomics ArrayScan (Thermo Scientific Inc, Waltham, Mass.) using the Target Activation software. […] The cells are seeded at 4,000 cells/well/0.075 ml of culture media in 96 flat-bottom well plate (Corning). The culture media is used for the infection. The length of the infection is six to ten days (instead of the three days for SVG-A cells).
Calculations: The rate of JCV infection was calculated by normalizing the number of JCV infected cells by the total number of nucleated cells as % JCV^+ cells=((total # VP1^+ cells)/(total # DAPI^+ cells))*100%. The % of viral inhibition by a compound was calculated using a JCV infection rate instead of using total number of JCV infected cells (e.g., VP1^+ cells).

The subject of data set [2] is SVG-A cells. The data set can be described thus: Total cell number (DAPI+ events) / cytotoxicity in the JCV infectivity assay. Particulars: for inhibition at 10 µM: Homo sapiens, SVG-A, read-out: % Inhibition total Cell Number @10 uM; for % Inhibition total Cell Number @10 uM: cytotoxicity, DAPI count. As to the method: as §1, §2
(§3) The primary assay employed an SVG-A cell line and JCV Mad1/SVEΔ viral strain.

Data set [3] is described as follows: in vitro. The following applies: human. Here is the method:
as §1, §2, §3

The test system of data set [4] is JCV. Kind of data set: Anti-JCV activity of structural analogs (Tables 4 and 5). It is filed as cell-based, JC polyomavirus (JCV).
For data set [5] the following is noted: published PK data; cited from earlier work.
Setting [6] is: JC polyomavirus, Glial cell, read-out: % Inhibition (total #JCV+) @10 uM.
The mark [7] stands for this setting: JC polyomavirus, SVG-A, read-out: % Inhibition (% JCV+) @10 uM.
[8] abbreviates: Table 4, mefloquine functional fingerprint in silico screen compounds.

Data on 30 compounds can be found in patent US9233107B2, “Compositions and methods for the treatment of progressive multifocal leukoencephalopathy (PML)” (Biogen MA Inc., priority 2007, dated 2016).

Like-named read-outs stand apart in the source and are kept apart here. A value given as a limit tells only on which side of the number the result lay.

The inhibition is the change of the read-out against control, counted positive when it falls. Broadly, the IC50 is the point on the concentration scale where inhibition reaches its midpoint. As to `Cc1nccc2c1[nH]c1ccccc12` [HARMANE], the inhibition at 10 µM in data set [1] (setting [6]) was determined as 24%; in data set [1] (setting [7]) it was 22%; in data set [2], 4%. The compound also returned a half-inhibitory concentration (IC50) in data set [1] (JC polyomavirus, SVG-A) of 14.4 µM. In addition, the CC50 in data set [3] is over 40 µM.
As to `CC(=O)OC(C)C1CCC2C3CCC4=CC(O)CCC4(C)C3CCC12C` (stereo not drawn) [4-PREGNEN-3-BETA, 20-BETA-DIOL 20-ACETATE], in data set [4] (Table 5, fusidic acid analogs), the anti-JCV activity entry was “Yes”.
`Nc1ncnc2c1ncn2[C@@H]1O[C@H](CO)[C@@H](O)[C@H]1O` [ADENOSINE]: in data set [4] (setting [8]), the anti-JCV activity entry was “No”.
With `COc1cc(C)c2c(=O)c(-c3ccccc3)coc2c1` [METHOXYVONE], the figures for the inhibition at 10 µM in data set [1] (setting [6]), in data set [1] (setting [7]) and in data set [2] were 38%, 27% and 15%, respectively. Besides, the half-inhibitory concentration (IC50) in data set [1] (JC polyomavirus, SVG-A) came out at 17.2 µM. The CC50 in data set [3] was over 40 µM.
As to `CC1=C(/C=C/C(C)=C/C=C/C(C)=C\C(=O)O)C(C)(C)CCC1` [ISOTRETINOIN], the inhibition at 10 µM in data set [1] (setting [6]) came out at 39%; in data set [1] (setting [7]) it was 28%; in data set [2], 15%. The compound further displayed an IC50 in data set [1] (JC polyomavirus, SVG-A) of 4.4 µM. Also, the “plasma Cmax” value in data set [5] is 1100 ng/mL.
Take `Nc1nc2c(ncn2[C@@H]2O[C@H](CO)[C@@H](O)[C@H]2O)c(=O)[nH]1` [GUANOSINE]: the anti-JCV activity result in data set [4] (setting [8]) is on record as “No”.
For `CC(=O)OC(C)C1CCC2C3CC(O)C4CC(O)CCC4(C)C3CCC12C` (stereo not drawn) [5-BETA-PREGNAN-3-ALPHA, 6-ALPHA, 20-BETA-TRIOL 20-ACETATE], in data set [4] (Table 5, fusidic acid analogs), the anti-JCV activity result is reported as “Yes”.
For `Nc1nc(OCC2CCCCC2)c2[nH]cnc2n1` [O6-Cyclohexylmethylguanine], the anti-JCV activity entry in data set [4] (setting [8]) is reported as “Yes”.
On to `CCC(=O)Nc1ccc(Cl)c(Cl)c1` [PROPANIL], for which the inhibition at 10 µM is 12% in data set [1] (setting [6]), 21% in data set [1] (setting [7]) and -12% in data set [2]. Besides, the IC50 in data set [1] (JC polyomavirus, SVG-A) was 7.8 µM. The CC50 at 3 days in data set [3] was over 40 µM.
Take `Clc1ccc(COC(Cn2ccnc2)c2ccc(Cl)cc2Cl)c(Cl)c1` (stereo not drawn) [MICONAZOLE NITRATE]: the results for the inhibition at 10 µM in data set [1] (setting [6]), in data set [1] (setting [7]) and in data set [2] were 46%, 42% and 7%, respectively. In data set [5], the “plasma Cmax” value is 10 ng/mL. Also, the CC50 in data set [2] (read-out: TC50, inhibition of total cell numbers by 50%) amounted to 22.9 µM.
With `Nc1nccc2c1ncn2[C@@H]1O[C@H](CO)[C@@H](O)[C@H]1O` [3-DEAZAADENOSINE], in data set [4] (setting [8]), the anti-JCV activity result is “Yes”.
Regarding `Nc1ncnc2c1nc(Cl)n2[C@@H]1O[C@H](CO)[C@@H](O)[C@H]1O` [8-CHLOROADENOSINE], the anti-JCV activity entry in data set [4] (setting [8]) is “Yes”.
On to `COc1ccc2cc(CCC(C)=O)ccc2c1` [NABUMETONE], for which the values for the inhibition at 10 µM in data set [1] (setting [6]), in data set [1] (setting [7]) and in data set [2] were 20%, 23% and -2%, respectively.
`CC(=O)OC1CC2CC(O)CCC2(C)C2CC(OC(C)=O)C3(C)C(C(C)CC(=O)O)CCC3C12` (stereo not drawn) [23-NOR-5-BETA-CHOLANIC ACID-3-ALPHA, 7-ALPHA, 12-ALPHA-TRIOL 7,12-DIACETATE]: the anti-JCV activity entry in data set [4] (Table 5, fusidic acid analogs) is on record as “No”.
In the case of POLYMYXIN B SULFATE, in data set [1], the “% Inhibition (total #JCV+) @10 uM” value is given as 36% and the “% Inhibition (% JCV+) @10 uM” value came to 41%. The “% Inhibition total Cell Number @10 uM” value in data set [2] is listed as −8%.
In the case of `COc1cc2c(cc1-c1coc3c4c(c(OC)cc3c1=O)OC(C)(C)C=C4)OCO2` [ICHTHYNONE], the inhibition at 10 µM in data set [1] (setting [6]) turned out to be 34%; in data set [1] (setting [7]), 24%; in data set [2], 14%.
Take `CC(=O)O[C@H]1C[C@@]2(C)[C@@H](C[C@@H](O)[C@H]3[C@@]4(C)CC[C@@H](O)[C@@H](C)[C@@H]4CC[C@@]32C)/C1=C(\CCC=C(C)C)C(=O)O` [FUSIDIC ACID]: the inhibition at 10 µM is 39% in data set [1] (setting [6]), 40% in data set [1] (setting [7]) and -2% in data set [2]. Also, the IC50 in data set [1] (JC polyomavirus, SVG-A) is 8.6 µM. In addition, the “plasma Cmax” value in data set [5] was 10000 to 90000 ng/mL.
As to `CC[C@@H](CO)Nc1nc(NCc2ccccc2)c2ncn(C(C)C)c2n1` (single isomer, unassigned) [ROSCOVITINE, (S)-ISOMER], in data set [4] (setting [8]), the anti-JCV activity entry was “Yes”.
Take `O=C(O)Cc1ccccc1Nc1c(Cl)cccc1Cl` [DICLOFENAC SODIUM]: the inhibition at 10 µM in data set [1] (setting [6]) came to 44%; in data set [1] (setting [7]) it was 31%; in data set [2], 18%. This compound yielded an IC50 in data set [1] (JC polyomavirus, SVG-A) of 8.3 µM. In data set [2] (human, 3 days), this compound returned a CC50 of 30.5 µM.
As for `O=c1cc(-c2ccccc2)oc2cc(O)cc(O)c12` [CHRYSIN], the figures for the inhibition at 10 µM in data set [1] (setting [6]), in data set [1] (setting [7]) and in data set [2] were 18%, 26% and -12%, respectively.
The matching figures for `CC/C(=C(/CC)c1ccc(O)cc1)c1ccc(O)cc1` [DIETHYLSTILBESTROL]: 42%, 29% and 18%.
The matching figures for `O=S1OCC2C(CO1)C1(Cl)C(Cl)=C(Cl)C2(Cl)C1(Cl)Cl` (stereo not drawn) [ENDOSULFAN]: 54%, 44% and 19%.
The matching figures for `O=c1cc(-c2ccc(O)cc2)oc2ccc(O)cc12` [6,4′-DIHYDROXYFLAVONE]: 18%, 22% and -5%.
For `CC(=O)O[C@H]1CC[C@H]2[C@@H]3CCC4=C[C@@H](O)CC[C@@H]4[C@H]3CC[C@]12C` [4-ESTREN-3-BETA, 17-BETA-DIOL 17-ACETATE], the anti-JCV activity entry in data set [4] (Table 5, fusidic acid analogs) is listed as “Yes”.
As for `CCCCCCCCCCCCCCCC(=O)OC[C@@H](NC(=O)C(Cl)Cl)[C@H](O)c1ccc([N+](=O)[O-])cc1` [CHLORAMPHENICOL PALMITATE], the inhibition at 10 µM was 20% in data set [1] (setting [6]), 29% in data set [1] (setting [7]) and -13% in data set [2].
The matching figures for `NCCOB(c1ccccc1)c1ccccc1` [AMINOETHOXYDIPHENYLBORANE]: 25%, 21% and 3%.
As to `CCCCOc1cc(CC2CNC(=O)N2)ccc1OC` (stereo not drawn) [4-(3-BUTOXY-4-METHOXYBENZYL)IMIDAZOLIDIN-2-ONE], the inhibition at 10 µM in data set [1] (setting [6]) was 48%; in data set [1] (setting [7]), 42%; in data set [2] it was 12%.
Regarding DEHYDROABIETAMIDE, in data set [1], the “% Inhibition (total #JCV+) @10 uM” value was 40% and the “% Inhibition (% JCV+) @10 uM” value was determined as 33%. In data set [1] (anti-JCV, inhibition of % JCV infected cells by 50%, full dose response, read-out: IC50), the IC50 is 13 µM. Moreover, in data set [2], the CC50 was over 40 µM and the “% Inhibition total Cell Number @10 uM” value was 11%.
Turning to `CC(=O)OC(C)C1CCC2C3CC(O)C4CC(O)CCC4(C)C3CCC12C` (stereo not drawn) [5-BETA-PREGNAN-3-ALPHA, 6-ALPHA, 20-ALPHA-TRIOL 20-ACETATE], in data set [4] (Table 5, fusidic acid analogs), the anti-JCV activity entry is given as “No”.
Consider `C[C@H]1CC[C@]2(NC1)O[C@H]1C[C@H]3[C@@H]4CC[C@H]5C[C@@H](O[C@@H]6O[C@H](CO)[C@H](O[C@@H]7O[C@H](CO)[C@@H](O)[C@H](O[C@@H]8OC[C@@H](O)[C@H](O)[C@H]8O)[C@H]7O[C@@H]7O[C@H](CO)[C@@H](O)[C@H](O)[C@H]7O)[C@H](O)[C@H]6O)CC[C@]5(C)[C@H]4CC[C@]3(C)[C@H]1[C@@H]2C` [TOMATINE], for which the inhibition at 10 µM in data set [1] (setting [6]) amounted to 40%; in data set [1] (setting [7]) it was 29%; in data set [2], 12%.
